Data published in patent US11427556B2, “Urea derivatives as inhibitors of ASK1” (Hepagene Therapeutics (HK) Limited, priority 2017, dated 2022).
Where two headings read alike, the source gives them in different places.

Molecular target: T1, Recombinant human ASK1 kinase (Homo sapiens, UniProt Q99683)
T1 construct: purchased Invitrogen Inc
T1 sequence (Q99683 1-1374): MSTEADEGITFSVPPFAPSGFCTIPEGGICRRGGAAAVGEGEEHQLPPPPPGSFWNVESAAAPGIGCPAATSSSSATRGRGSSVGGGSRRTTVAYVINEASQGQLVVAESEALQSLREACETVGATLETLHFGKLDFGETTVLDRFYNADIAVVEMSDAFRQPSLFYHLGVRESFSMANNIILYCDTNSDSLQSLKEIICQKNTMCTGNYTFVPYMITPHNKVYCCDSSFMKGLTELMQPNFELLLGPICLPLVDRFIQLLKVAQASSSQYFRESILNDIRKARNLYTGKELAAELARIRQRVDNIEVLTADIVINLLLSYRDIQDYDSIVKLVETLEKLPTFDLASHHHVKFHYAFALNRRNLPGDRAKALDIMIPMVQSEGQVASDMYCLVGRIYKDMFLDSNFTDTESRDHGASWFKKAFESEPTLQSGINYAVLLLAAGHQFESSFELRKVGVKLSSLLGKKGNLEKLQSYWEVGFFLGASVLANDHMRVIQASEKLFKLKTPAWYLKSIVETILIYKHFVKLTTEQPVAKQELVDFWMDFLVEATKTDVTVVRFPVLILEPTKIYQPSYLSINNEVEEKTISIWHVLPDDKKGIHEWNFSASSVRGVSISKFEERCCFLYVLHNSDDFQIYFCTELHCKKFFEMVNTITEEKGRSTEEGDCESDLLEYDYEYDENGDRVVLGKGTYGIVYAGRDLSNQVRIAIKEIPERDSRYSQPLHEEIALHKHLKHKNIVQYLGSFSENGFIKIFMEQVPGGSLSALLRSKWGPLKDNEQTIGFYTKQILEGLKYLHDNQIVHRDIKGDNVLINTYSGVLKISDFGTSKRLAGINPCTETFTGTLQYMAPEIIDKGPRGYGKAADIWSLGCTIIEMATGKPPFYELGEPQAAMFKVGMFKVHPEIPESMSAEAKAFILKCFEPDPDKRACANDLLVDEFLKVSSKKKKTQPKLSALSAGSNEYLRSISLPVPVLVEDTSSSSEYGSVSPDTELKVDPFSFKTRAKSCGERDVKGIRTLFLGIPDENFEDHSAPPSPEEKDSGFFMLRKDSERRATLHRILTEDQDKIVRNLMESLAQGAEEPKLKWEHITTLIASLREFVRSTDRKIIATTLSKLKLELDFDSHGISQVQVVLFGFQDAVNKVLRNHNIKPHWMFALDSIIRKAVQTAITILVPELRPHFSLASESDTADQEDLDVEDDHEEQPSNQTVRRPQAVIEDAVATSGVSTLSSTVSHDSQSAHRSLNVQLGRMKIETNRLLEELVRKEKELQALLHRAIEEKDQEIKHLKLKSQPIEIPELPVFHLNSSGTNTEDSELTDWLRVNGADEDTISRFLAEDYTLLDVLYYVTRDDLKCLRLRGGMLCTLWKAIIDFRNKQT
Assay: ASK1 kinase HTRF assay (HTRF KinEASE-STK, phosphorylation of biotinylated peptide substrate)
Format: biochemical
Procedure: Reagents: Recombinant human ASK1 kinase was from Invitrogen Inc. HTRF KinEASETM-STK S3 kit was obtained from Cisbio (Bedford, Mass.). All other reagents were of the highest grade commercially available.
Assay: The assay measures the phosphorylation level of a biotinylatd peptide substrate by the ASK1 kinase using HTRF detection. ASK1 kinase assay is based on HTRF KinEASETM-STK manual from Cisbio. Test compound, 1 uM STK-substrate-biotin, 3 nM of ASK1 kinase are incubated with 1*Kinase buffer with 5 mM MgCl2 and 1 mM DTT.

[1] = 3 nM ASK1 kinase, 1 uM STK-substrate-biotin, HTRF detection, read-out: EC50

SMILES | EC50 [1] [nM] | EC50 [nM]
CC(C)n1cnnc1-c1cccc(NC(=O)Nc2cc(N3CCCCC3)ccn2)n1 [Compound I-105] | < 50 | 
CC(C)n1cnnc1-c1cccc(NC(=O)Nc2cccc(C#N)n2)n1 [Compound I-200] | < 50 | 
C[C@H](CO)n1cnnc1-c1cccc(NC(=O)Nc2cc(C3CCOCC3)ccn2)n1 [Compound I-092] | < 50 | 
CC(C)n1cnnc1-c1cccc(NC(=O)Nc2cc(N3CCNCC3)ccn2)n1 [Compound I-095, 1-(6-(4-Isopropyl-4H-1,2,4-triazol-3-yl)pyridin-2-yl)-3-(4-(piperazin-1-yl)pyridin-2-yl)urea] | < 50 | 
CC(C)n1cnnc1-c1cccc(NC(=O)Nc2cc(C(=O)N3CCCCCC3)ccn2)n1 [Compound I-147] | < 50 | 
CC(C)n1cnnc1-c1cccc(NC(=O)Nc2cc(-c3ccccc3)ccn2)n1 [Compound I-077] | < 50 | 
CC(C)n1cnnc1-c1cccc(NC(=O)Nc2cc(F)ccn2)n1 [Compound I-187] | < 50 | 
O=C(Nc1cccc(-c2nncn2C2CC2)n1)Nc1ccc2ccccc2n1 [Compound I-068] | < 50 | 
CC(C)n1cnnc1-c1cccc(N2CCN(c3ccc(N4CCNCC4)cn3)C2=O)n1 [Compound V-01, 1-(6-(4-Isopropyl-4H-1,2,4-triazol-3-yl)pyridin-2-yl)-3-(5-(piperazin-1-yl)pyridin-2-yl)imidazolidin-2-one] | < 50 | 
CC(C)n1cnnc1-c1cccc(NC(=O)Nc2cc(S(=O)(=O)N3CCCCC3)ccn2)n1 [Compound I-206] | < 50 | 
Cc1ccc(NC(=O)Nc2cccc(-c3nncn3C(C)CO)n2)nc1 (centres unmarked) [Compound I-035] | < 50 | 
CC(C)n1cnnc1-c1cccc(NC(=O)Nc2cccc(-c3nncn3C(C)C)n2)n1 [Compound I-171] | 50 to 500 | 

The next lines start with the values.

EC50 [1] [nM] | EC50 [nM] | SMILES
< 50 |  | C[C@@H](CO)n1cnnc1-c1cccc(NC(=O)Nc2cc(-c3ccccc3)ccn2)n1 [Compound I-079]
< 50 |  | CC(C)n1cnnc1-c1cccc(NC(=O)Nc2cc(C(=O)Nc3cccnc3)ccn2)n1 [Compound I-162]
< 50 |  | C[C@H](CO)n1cnnc1-c1cccc(N2CCN(c3ccc(C(=O)N4CCCCC4)cn3)C2=O)n1 [Compound V-23]
< 50 |  | C[C@H](CO)n1cnnc1-c1cccc(NC(=O)Nc2cc(C(=O)N3CCCCCC3)ccn2)n1 [Compound I-148]
< 50 |  | CC(C)n1cnnc1-c1cccc(NC(=O)Nc2cc(C(=O)Nc3ccccc3)ccn2)n1 [Compound I-152]
50 to 500 |  | Cc1ccc(-n2ccn(-c3cccc(-c4nncn4C(C)C)n3)c2=O)c(F)c1 [III-01, 3-(2-Fluoro-4-methylphenyl)-1-(6-(4-isopropyl-4H-1,2,4-triazol-3-yl)pyridin-2-yl)-1H-imidazol-2(3H)-one]
 | < 50 | C[C@H](CO)n1cnnc1-c1cccc(NC(=O)Nc2ccc3ccccc3n2)n1 [Compound I-069]
50 to 500 |  | CC(C)n1cnnc1-c1cccc(NC(=O)Nc2cc3cc(N4CCNCC4)ccc3cn2)n1 [Compound I-065]
< 50 |  | CC(C)n1cnnc1-c1cccc(NC(=O)Nc2ncco2)n1 [Compound I-215]
< 50 |  | Cc1cnc(NC(=O)Nc2cccc(-c3nncn3C(C)C)n2)cn1 [Compound I-056]
< 50 |  | CC(C)n1cnnc1-c1cccc(NC(=O)Nc2cc(N3CCN(C4CC4)CC3)ccn2)n1 [Compound I-100]
< 50 |  | CCc1ccnc(NC(=O)Nc2cccc(-c3nncn3C(C)C)n2)c1 [Compound I-042]
50 to 500 |  | Cc1ccc(NC(=O)Nc2cccc(-c3nncn3C(C)C)n2)cn1 [Compound I-041]
< 50 |  | CC(C)n1cnnc1-c1cccc(NC(=O)Nc2cc(Cl)ccn2)n1 [Compound I-181]
< 50 |  | C[C@H](CO)n1cnnc1-c1cccc(NC(=O)Nc2cc(N3CCN(S(C)(=O)=O)CC3)ccn2)n1 [Compound I-103]
< 50 |  | CC(C)n1cnnc1-c1cccc(NC(=O)Nc2ccc(N3CCNCC3)cn2)n1 [Compound I-097]
< 50 |  | COc1cccnc1NC(=O)Nc1cccc(-c2nncn2C(C)C)n1 [Compound I-055]
